From the supplement of paper PMC10307832

Columns and labels:
Assay in all cases: relative viability (nuclei count vs DMSO), 5 days (fraction); higher = more cells survive
[1] = compound: CC1=NN=C(O1)C2=NN=C(C=C2)N3CCC(CC3)OC4=C(C=CC(=C4)F)Cl + Nc1ncn([C@H]2C[C@H](O)[C@@H](CO)O2)c(=O)n1 [Decitabine] (partner 2 µM)
Method in brief: (§1)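 Relative viability is defined as nuclei in treated wells over nuclei in vehicle wells. Duplicate plates were run and medians reported. Lung cancer cell lines in 1536-well plates were dosed by pin tool one day after seeding, with one drug or with a fixed anchor-drug dose plus five library-drug doses (not always all listed) in √10 steps, and nuclei were counted after 5 days.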

[2] = compound: CC1=NN=C(O1)C2=NN=C(C=C2)N3CCC(CC3)OC4=C(C=CC(=C4)F)Cl + CC(=O)c1c(C)c2cnc(Nc3ccc(N4CCNCC4)cn3)nc2n(C2CCCC2)c1=O [Palbociclib] (partner 0.5 µM)
Method in brief: as §1

[3] = compound: CC(C)C[C@@H](C(=O)N[C@H](C(=O)OC1CCCC1)c1ccccc1)[C@H](O)C(=O)NO [Tosedostat] + C[C@@H](Oc1cc(-c2cnn(C3CCNCC3)c2)cnc1N)c1c(Cl)ccc(F)c1Cl [Crizotinib] (partner 1 µM)
Method in brief: as §1

[4] = compound: CC(C)C[C@@H](C(=O)N[C@H](C(=O)OC1CCCC1)c1ccccc1)[C@H](O)C(=O)NO [Tosedostat] + C[C@]1(O)C[C@@H](c2nc(-c3ccc4ccc(-c5ccccc5)nc4c3)c3c(N)nccn32)C1 [Linsitinib] (partner 1 µM)
Method in brief: as §1

Cell Line | relative viability ([1]; first compound 0.253 µM) | relative viability ([1]; first compound 0.8 µM) | relative viability ([1]; first compound 2.53 µM) | relative viability ([1]; first compound 8 µM) | relative viability ([2]; first compound 0.253 µM) | relative viability ([2]; first compound 0.8 µM) | relative viability ([2]; first compound 2.53 µM) | relative viability ([2]; first compound 8 µM) | relative viability ([3]; first compound 0.02 µM) | relative viability ([3]; first compound 0.06325 µM) | relative viability ([3]; first compound 0.2 µM) | relative viability ([3]; first compound 0.6325 µM) | relative viability ([3]; first compound 2 µM) | relative viability ([4]; first compound 0.02 µM) | relative viability ([4]; first compound 0.06325 µM) | relative viability ([4]; first compound 0.2 µM) | relative viability ([4]; first compound 0.6325 µM) | relative viability ([4]; first compound 2 µM)
LC-2-ad | 0.335 | 0.314 | 0.381 | 0.348 | 0.215 | 0.216 | 0.239 | 0.202 | 0.47 | 0.454 | 0.493 | 0.378 | 0.348 | 0.865 | 0.743 | 0.866 | 0.823 | 0.805
LCLC-97TM1 | 0.205 | – | 0.186 | 0.18 | 0.184 | – | 0.164 | 0.19 | 0.338 | – | – | 0.288 | 0.221 | 0.181 | – | – | 0.205 | 0.167
LCLC-103H | 0.491 | 0.694 | 0.552 | 0.435 | 0.343 | 0.32 | 0.321 | 0.343 | 1.09 | 1.03 | 1.06 | 1.13 | 1.02 | 1.29 | 1.08 | 1.06 | 1.18 | 1.36
LK-2 | 0.401 | 0.279 | 0.325 | 0.315 | 0.739 | 0.818 | 0.772 | 0.614 | 0.218 | 0.225 | 0.232 | 0.249 | 0.215 | 0.883 | 0.465 | 0.562 | 0.743 | 0.913
LOU-NH91 | – | 0.773 | 0.773 | 0.759 | – | 0.535 | 0.478 | 0.632 | 0.86 | 0.752 | 0.767 | 0.695 | 0.694 | 0.961 | 0.932 | 0.991 | 0.973 | 0.938
LU99A | 0.891 | 0.913 | 0.812 | 0.834 | 0.402 | 0.484 | 0.443 | 0.418 | 0.546 | 0.636 | 0.648 | 0.484 | 0.478 | 0.508 | 0.555 | 0.528 | 0.561 | 0.504
LXF-289 | 0.317 | 0.323 | 0.343 | 0.3 | 0.524 | 0.549 | 0.531 | 0.458 | 0.838 | 0.703 | 0.821 | 0.76 | 0.799 | 1.02 | 0.879 | 1.02 | 0.946 | 0.994
NCI-H23 | 0.268 | 0.328 | 0.295 | 0.282 | 0.44 | 0.442 | 0.466 | 0.454 | 0.504 | 0.494 | 0.442 | 0.341 | 0.206 | 0.612 | 0.56 | 0.548 | 0.474 | 0.416
NCI-H322M | 0.812 | 0.709 | 0.682 | 0.643 | 0.471 | 0.509 | 0.469 | 0.492 | 0.877 | 0.957 | 0.841 | 0.868 | 0.71 | 0.8 | 0.902 | 0.894 | 0.877 | 0.839
NCI-H358 | 0.19 | 0.212 | 0.197 | 0.181 | 0.137 | 0.12 | 0.119 | 0.133 | 0.725 | 0.458 | 0.355 | 0.198 | 0.196 | 0.944 | 0.788 | 0.544 | 0.548 | 0.507
NCI-H441 | 0.221 | 0.227 | 0.259 | 0.254 | 0.206 | 0.257 | 0.282 | 0.217 | 0.648 | 0.761 | 0.496 | 0.335 | 0.401 | 0.487 | 0.544 | 0.473 | 0.402 | 0.403
NCI-H460 | 0.164 | 0.167 | 0.201 | 0.166 | 0.0613 | 0.0812 | 0.0833 | 0.0883 | 0.956 | 0.787 | 0.905 | 0.708 | 0.932 | 0.845 | 0.84 | 0.857 | 0.849 | 0.942
NCI-H520 | 0.603 | 0.495 | 0.478 | 0.362 | 0.247 | 0.258 | 0.263 | 0.251 | 0.692 | 0.754 | 0.787 | 0.833 | 0.846 | 1.13 | 0.962 | 0.944 | 1.02 | 1.06
NCI-H647 | 0.32 | 0.289 | 0.275 | 0.223 | 0.168 | 0.201 | 0.155 | 0.0745 | 1.25 | 1.04 | 0.831 | 0.957 | 0.869 | 1.07 | 1.2 | 1.01 | 1.12 | 1.24
NCI-H650 | 0.334 | 0.331 | 0.336 | 0.285 | 0.323 | 0.318 | 0.32 | 0.314 | 0.786 | 0.662 | 0.596 | 0.551 | 0.375 | 0.853 | 0.84 | 0.679 | 0.656 | 0.494
NCI-H661 | 0.519 | 0.465 | 0.407 | 0.396 | 0.354 | 0.38 | 0.355 | 0.302 | 0.929 | 0.93 | 1.12 | 1.04 | 1.04 | 0.552 | 0.592 | 0.555 | 0.494 | 0.495
NCI-H727 | 0.916 | 0.873 | 0.905 | 0.862 | 0.672 | 0.708 | 0.718 | 0.596 | 0.983 | 0.784 | 0.658 | 0.557 | 0.513 | 0.264 | 0.266 | 0.272 | 0.168 | 0.322
NCI-H838 | 0.467 | 0.463 | 0.442 | 0.451 | 0.192 | 0.24 | 0.222 | 0.196 | 0.969 | 0.92 | 0.826 | 0.818 | 0.948 | 1.09 | 0.982 | 1.02 | 1.08 | 1.31
